Data reported in patent publication US20180214423A1, “PHARMACEUTICAL COMPOSITION COMPRISING RAPAMYCIN OR DERIVATIVE THEREOF, AND METHOD FOR PRODUCING THE SAME” (NIPPON KAYAKU KABUSHIKI KAISHA, priority 2015, published 2018).

What was measured:
[1] = cited from earlier work
[2] = Test Example B1: preservation stability of everolimus compositions and active pharmaceutical ingredient, residual everolimus by HPLC; format: physicochemical; settings: light-shielded, 60° C.
Procedure: It is to be noted that, in the analysis using liquid chromatography (HPLC) in the present test examples, the measurement was carried out under the following conditions. • Measurement column: Zorbax Eclipse XDB-C18, Rapid resolution HT, 100 mm ×4.6 mm, L8 μm • Detector: ultraviolet absorption spectrophotometer (measurement wavelength: 278 nm) • Column temperature: 45° C. • Mobile phase A: 0.1% formic acid; mobile phase B: methanol/acetonitrile=50/50 • Concentration gradient of mobile phase:
The pharmaceutical compositions obtained by the methods of Example B1 and Comparative Examples B1 to B4 (approximately 1 g each) and the active pharmaceutical ingredient of everolimus (100 mg) were each collected in a brown sample bottle, and were then preserved under light-shielded conditions at 60° C., in a desiccator, the humidity of which had been adjusted with a saturated cobalt chloride aqueous solution (relative humidity: approximately 49%), while the bottle was uncapped.
The residual amounts of everolimus 10 days and 14 days after initiation of the preservation test were measured by liquid chromatography (HPLC), and the residual percentages of everolimus at individual time points were then calculated. It is to be noted that the residual percentage was calculated according to the following formula. The results are shown in Table 5. • Residual percentage (%) of everolimus (peak area of everolimus measured by HPLC at each time point/weighed value of powders)/(peak area of everolimus measured by HPLC before preservation (initial)/weighed value of powders)× 100.

Structure (SMILES) | critical relative humidity at 25° C. [1] | decomposition reaction such as oxidation on preservation (in words) ([2]; relative humidity approximately 49%) | Residual percentage (%) of everolimus, Value on Day 10 ([2]; relative humidity approximately 49% (saturated cobalt chloride), uncapped, Day 10) | Residual percentage (%) of everolimus, Value on Day 14 ([2]; relative humidity approximately 49% (saturated cobalt chloride), uncapped, Day 14)
OC[C@H]1O[C@H](O[C@H]2O[C@H](CO)[C@@H](O)[C@H](O)[C@H]2O)[C@H](O)[C@@H](O)[C@@H]1O [trehalose] | ≥ 95% | – | – | –
CO[C@H]1C[C@@H]2CC[C@@H](C)[C@@](O)(O2)C(=O)C(=O)N2CCCC[C@H]2C(=O)O[C@H]([C@H](C)C[C@@H]2CC[C@@H](OCCO)[C@H](OC)C2)CC(=O)[C@H](C)/C=C(\C)[C@@H](O)[C@@H](OC)C(=O)[C@H](C)C[C@H](C)/C=C/C=C/C=C/1C [40-O-(2-hydroxyethyl)rapamycin] | – | rapidly progresses | 5% | 2%
OC[C@@H](O)[C@@H](O)[C@H](O)[C@@H](O)CO [sorbitol] | approximately 70% | – | – | –
OC[C@@H](O)[C@@H](O)[C@H](O)[C@H](O)CO [mannitol] | ≥ 95% | – | – | –
OC[C@H]1O[C@@H](O[C@H]2[C@H](O)[C@@H](O)C(O)O[C@@H]2CO)[C@H](O)[C@@H](O)[C@H]1O (stereo partly shown) [lactose] | ≥ 95% | – | – | –
